Experimental data taken from patent US5919896A, “PF4A receptor” (Genentech, Inc., priority 1997, dated 1999).

What was measured:
[1] = test system: IL8R-A; conditions: Holmes et al., cited from earlier work
[2] = test system: IL-8 receptor (clone pRK5B.il8r1.1) on transfected COS cells; test: 125I-IL-8 binding competition on transfected COS cells; parameters: species or system human; conditions: COS cells transfected with clone pRK5B.il8r1.1
Protocol: Samanta et al., supra, Besemer et al., supra, Grob et al., supra.
Binding competition was performed with electroporated COS-7 cells after 1 day of expression in 6-well dishes (about 175,000 cells/dish). […] Wells were then washed, the cells harvested with trypsin, and counted. […] Neutrophil binding was performed as described (Pacholczyk et al., supra) but for 2 hr at 4° C.

[3] = test system: human fMLP receptor; test: Flow cytometry intracellular Ca++ response of 293 cells transfected with fMLP receptor; format: cell-based; conditions: 293 cells transfected with human fMLP receptor
Protocol: (§1) After two days, the cells were loaded with 2 μM indo-1 acetoxymethyl ester in RPMI medium (Sigma) for 30 min at 37° C. Intracellular Ca^++ was measured with a Coulter 753 flow cytometer using the ratio of 405 and 525 nm fluorescence. Grynkiewicz et al., J. Biol. Chem., 260: 3440-3450 (1985).
(§2) Oppenheim et al., supra; Korchak et al., J. Biol Chem., 259: 4076-4082 (1984). […] Oppenheim et al., supra.

[4] = test system: expressed IL-8 receptor
Excerpt: as §2

[5] = test system: human IL-8 receptor (clone pRK5B.il8r1.1); test: Flow cytometry intracellular Ca++ response of 293 cells transfected with IL-8 receptor; format: cell-based
Protocol: as §1
(§3) No response is found to fMLP. […] Oppenheim et al., supra.

[6] = molecular target: IL8R-B; conditions: background, Murphy and Tiffany; read-out: affinity of IL8R-B for ligand; cited from earlier work
[7] = test system: receptor of FIG. 4 (8rr.20.15); test: Response of recombinant cells bearing the FIG. 4 receptor to PF4 superfamily ligands; format: cell-based, human; conditions: preliminary experiments
[8] = test system: receptor of FIG. 5 (8rr.9); test: Response of recombinant cells bearing the FIG. 5 receptor to PF4 superfamily ligands; format: cell-based, human; conditions: preliminary experiments
[9] = test system: expressed human fMLP receptor; test: 125I-IL-8 binding to the expressed human fMLP receptor
Excerpt: as §3

[10] = test system: Murphy and Tiffany receptor; test: Ligand affinity of the Murphy and Tiffany receptor (studies herein); format: binding, human
Excerpt: Murphy and Tiffany, supra, describe a receptor having a high degree of homology to the receptor of FIG. 2. […] This could be readily accomplished by routine screening methods.

[11] = test system: receptor of FIG. 2 (IL-8 receptor); test: MGSA binding to the receptor of FIG. 2; parameters: species or system human
Excerpt: Murphy and Tiffany, supra, describe a receptor having a high degree of homology to the receptor of FIG. 2. […] This could be readily accomplished by routine screening methods. […] On the other hand, antibodies that can discriminate between the FIG. 2 and Murphy and Tiffany receptors and bind only to one or the other are useful in diagnosis. The receptor of FIG. 2 binds MGSA poorly, in contrast to the Murphy and Tiffany receptor.

[12] = test system: human neutrophils; test: Inhibition of 125I-IL-8 binding to human neutrophils; conditions: 475 pM of MGSA, no antibody
Excerpt: Cells were washed twice in the HBSS medium and resuspended to be 1×10^6 cells/ml.

Molecule | recognition of ligand by IL8R-A [1] | response of recombinant cells bearing the receptor [7] | response of recombinant cells bearing the receptor [8] | further results
CCCCC/C=C\C[C@@H](O)/C=C/C=C/C=C\[C@@H](O)CCCC(=O)O [LTB4, reference compound] | does not recognize | – | – | –
CSCC[C@H](NC=O)C(=O)N[C@@H](CC(C)C)C(=O)N[C@@H](Cc1ccccc1)C(=O)O [fMLP, f-Met-Leu-Phe, reference compound] | does not recognize | – | – | competition of 125I-IL-8 binding [2]: no competition; intracellular Ca++ response [3]: respond; binding of 3H-fMLP to the expressed IL-8 receptor [4]: failed to detect any binding; intracellular Ca++ response [5]: No response
IL-8: Purified human 72 amino acid IL-8 made in E. coli | – | do not respond | do not respond | intracellular Ca++ response [3]: not; Kd [6]: 2 nM; binding of 125I-IL-8 to the expressed human fMLP receptor [9]: failed to detect any binding; IL-8 affinity compared with the receptor of FIG. 2 [10]: as high or higher; Kd ([1]; background, read-out: affinity of IL8R-A for ligand): 2 nM; intracellular Ca++ response [5]: clear transient increase
MCAF: macrophage chemotactic and activating factor, C-C peptide | does not recognize | – | – | –
MCP1: PF4 superfamily ligand tested on cells bearing the FIG. 4 and 5 receptors | – | do not respond | do not respond | –
MGSA: NAP-3 (melanoma growth-stimulating activity [MGSA]/gro), C-X-C member of the PF4 superfamily | does recognize | do not respond | do not respond | Kd [6]: 2 nM; binding of MGSA [11]: poorly; inhibition of IL-8 binding to human neutrophils by MGSA [12]: approximately 50%; Kd ([10]; read-out: affinity for MGSA): 1 to 10 nM
TNF-α | does not recognize | – | – | –
C5α: neutrophil chemoattractant C5a (protein, UniProt P01031 678-751, looked up, C5a anaphylatoxin, neutrophil chemoattractant C5a) C5a anaphylatoxin: TLQKKIEEIAAKYKHSVVKKCCYDGACVNNDETCEQRAARISLGPRCIKAFTECCVVASQLRANISHKDMQLGR | does not recognize | – | – | –
NAP-2: neutrophil activating protein-2, C-X-C family member (protein, UniProt P02775 59-128, looked up, Neutrophil-activating peptide 2) Neutrophil-activating peptide …: AELRCMCIKTTSGIHPKNIQSLEVIGKGTHCNQVEVIATLKDGRKICLDPDAPRIKKIVQKKLAGDESAD | does recognize | – | – | –
Rantes: C-C peptide of the platelet factor 4 superfamily (protein) SPYSSDTTPCCFAYIARPLPRAHIKEYFYTSGKCSNPAVVFVTRKNRQVCANPEKKWVREYINSLEMS | – | do not respond | do not respond | –
